Experimental data as given in US10406120B2, “Methods and compositions for treating kidney disorders” (Golden Biotechnology Corporation, priority 2013, dated 2019).

How the values were obtained:
[1] = FSGS model: urine protein and renal function (BUN, Cr); format: in vivo, BALB/c mice; conditions: FSGS mice
Protocol: Experiments described herein were performed on 8-week-old female BALB/c mice. The FSGS mice were injected intravenously with a single dose of adriamycin (0.1 mg/10 g body weight). The mice were given Compound 1 six hours before adriamycin injection by gavage daily till sacrifice. BALB/c mice intraperitoneal injected with normal saline were used as normal controls, while ASLN mice given vehicle (corn oil) by gavage were used as disease controls. Mice were killed at day 7, 14, or 21 after disease induction, and spleen, renal cortical tissue, and blood samples collected and stored appropriately until analysis. All animal experiments were performed with the ethical approval of the Institutional Animal Care and Use Committee of The National Defense Medical Center, Taiwan and performed according to the ethical rules in the NIH Guide for the Care and Use of Laboratory Animals.
Urine samples were collected in metabolic cages at day 3, 7, 14, and 21, and urine protein was determined as described previously. (Shui, et al., Nephrol Dial Transplant, 21: 1794-1802, 2006) Serum samples were collected at day 7, 14, or 21 when mice were sacrificed to measure serum levels of BUN and Cr.

[2] = AcP-IgAN model: urine protein and renal function (BUN, Cr); format: in vivo, B cell-deficient mice; conditions: AcP-IgAN mice
Protocol: (§1) B cell-deficient mice (B6.129S2-Igh-6tm1Cgn/J) were obtained from the Academia Sinica (Professor John T. Kung, Institute of Molecular Biology), and maintained at the animal center of the National Defense Medical Center, Taipei, Taiwan. AcP-IgAN was induced in the mice by daily injection of purified IgA anti-phosphorylcholine antibodies and pneumococcal C-polysaccharide (PnC) as described previously (Chao, et al., Kidney Int. 70:283-297; 2006). All animal experiments were performed with the approval of the Institutional Animal Care and Use Committee of The National Defense Medical Center, Taiwan, and were consistent with the NIH Guide for the Care and Use of Laboratory Animals.
(§2) Body weight of the mice was measured weekly. Urine samples were collected in metabolic cages weekly, and urine protein determined followed the know methods (Chao, et al., Kidney Int. 70:283-297; 2006). Serum samples were collected at day 3 and day 28 to measure serum levels of blood urea nitrogen (BUN) and creatinine (Cr).

[3] = AcP-IgAN model: body weight and general condition; format: in vivo, B cell-deficient mice; conditions: AcP-IgAN mice, 50 mg/kg, up to day 28
Protocol: as §1, §2

Col-IV = assay: AcP-IgAN model: renal Col-IV mRNA and protein; format: in vivo, B cell-deficient mice; conditions: AcP-IgAN mice
Protocol: as §1
For IHC, formalin fixed and paraffin embedded tissue sections or frozen sections were incubated with against IL-6 (R&D Systems, MN), MCP-1 (Santa Cruz, Calif.), F4/80 (monocytes/macrophages; Serotec, N.C.), collagen IV (Southern Biotech, AL), TGF-β1 (Santa Cruz), phopsho-NFκB p65 (Cell Signaling, MA), CD3 (pan-T cell; Serotec), CD4 (T helper cell; BioLegend, CA), CD8 (cytotoxic T cell), CD11b (macrophages/neutrophils), or CD11c (dendritic cells) (BD Biosciences, CA) antibodies. The FITC-conjugated, Alexa Fluor 488-conjugated (Invitrogen, CA) or horseradish peroxidase (HRP) conjugated secondary antibodies (DAKO, Denmark) were then applied to the sections. Hematoxylin or 4′,6-diamidino-2-phenylindole (DAKO) was used in the counter staining for nuclei.
(§3) Total cortical kidney RNA was extracted with TriZOL reagents (Invitrogen) from cortical tissue of the kidney. For first-strand cDNA synthesis, 1.5 μg of total RNA was used in a single-round reverse transcriptase reaction. The reaction mixture consisted of 0.9 μl of Oligo (dT) 12 to 18 primer, 1.0 mM deoxyribonucleotide triphosphate (dNTP), 1 μl first strand buffer, 0.4 mM dithiothreitol, 80 U of RNaseout recombinant ribonuclease inhibitor, and 300 U of superscript II RNase H (Invitrogen). Real-time PCR was performed on an ABI Prism 7700 Sequence Detection System (Applied Biosystems, CA). […]

splenocytes = assay: AcP-IgAN model: T cell proliferation analysis (thymidine uptake); format: in vivo, B cell-deficient mice
Protocol: as §1
Splenocytes from the mice were prepared as described as above, then were cultured in triplicate in wells (5×10^5 cells in 200 μl/well) in 96-well flat-bottomed microtiter plates previously coated overnight at 4° C. with 0.25 μg/ml of anti-mouse CD3 antibody (BD Biosciences). After 48 hr, the cultures were pulsed with 1 μCi of 3H-methyl thymidine (Amersham Pharmacia Biotech, NJ), harvested 16 hr later, and the incorporated 3H-methyl thymidine measured using a TopCount (Packard, PerkinElmer, MA).

IL-1β = assay: AcP-IgAN model: serum IL-1β ELISA; format: in vivo, B cell-deficient mice; conditions: AcP-IgAN mice, day 28, vs control AcP-IgAN mice (FIG. 15C)
Protocol: as §1
Serum levels of IL-1β (eBiosceience, CA), IL-6 (eBiosceience), IL-18 (MBL, Japan), and MCP-1 (eBiosceience) were measured using commercial ELISA kits according to the manufacturer's instructions.

caspase-1 = assay: AcP-IgAN model: renal caspase-1 mRNA and protein; format: in vivo, B cell-deficient mice; conditions: AcP-IgAN mice
Protocol: as §1
as §3, with “(Invitrogen).” for “(Invitrogen). Real-time PCR was performed on an ABI Prism 7700 Sequence Detection System (Applied Biosystems, CA).”
Each protein sample was run on a 10% SDS-PAGE gel. […] The membrane-bound antibody detected was incubated with chemiluminescent reagent plus (PerkinElmer Life Sciences, MA) and captured on x-ray film.

[4] = 50 mg/kg by gavage daily, day 14 to day 21, vs control FSGS mice
[5] = day 7, among normal control, control FSGS and FSGS+Antroq mice
[6] = day 3, between control AcP-IgAN, AcP-IgAN+Antroq and normal control mice
[7] = day 28, vs control AcP-IgAN mice

## COC1=C(OC)[C@H](O)[C@H](C/C=C(\C)CC/C=C(\C)CCC=C(C)C)[C@@H](C)C1=O [Compound 1, Antroquinonol]
[1]; 50 mg/kg by gavage daily, day 7 to day 21, vs control FSGS mice (vehicle)
  urine protein levels: greatly suppressed
[1]; [4]
  serum levels of blood urea nitrogen (BUN): much better renal function
  serum levels of creatinine (Cr): much better renal function
[1]; [5]
  serum levels of BUN: no significant difference
  serum levels of Cr: no significant difference
[2]; 50 mg/kg, day 7 to day 28, vs control AcP-IgAN mice (vehicle)
  urine protein levels: greatly suppressed
[2]; compared to normal controls
  proteinuria: mild proteinuria
[2]; [6]
  serum levels of BUN: no significant difference
  serum levels of Cr: no significant difference
[2]; [7]
  serum levels of BUN: much better renal function
  serum levels of creatinine: much better renal function
[3]
  activity, hair loss, appetite: normal activity and no evidence of hair loss or appetite change
  growth (body weight recorded every week): no different from that of normal controls
Col-IV; day 3
  renal mRNA levels of Col-IV: basal mRNA levels
Col-IV; [7]
  Col-IV protein levels in kidney (IHC): substantially inhibited
  renal mRNA expression of Col-IV: greatly inhibited
splenocytes; AcP-IgAN mice, day 28
  proliferation of CD3^+ T cell in splenocytes (thymidine uptake): near baseline levels of proliferation
splenocytes; day 3, worded as control AcP-IgAN mice relative to AcP-IgAN+Antroq mice
  proliferation of CD3^+ T cell in splenocytes (thymidine uptake): greatly increased proliferation of CD3^+ T cell in splenocytes compared to that of AcP-IgAN+Antroq mice
IL-1β
  serum levels of IL-1β (increase): greatly inhibited
caspase-1; both day 3 and day 28, vs control AcP-IgAN mice
  renal increase in caspase-1 protein levels: greatly inhibited
caspase-1; day 3 until day 28, real-time PCR
  renal mRNA expression levels of caspase-1 (elevation): greatly inhibited
